{"source": "ChEMBL document CHEMBL1201862", "about": "“PubChem BioAssay data set” (2004)", "key": {"[1]": {"target": "Large T antigen (Simian virus 40, UniProt P03070)", "sequence (P03070 whole entry)": "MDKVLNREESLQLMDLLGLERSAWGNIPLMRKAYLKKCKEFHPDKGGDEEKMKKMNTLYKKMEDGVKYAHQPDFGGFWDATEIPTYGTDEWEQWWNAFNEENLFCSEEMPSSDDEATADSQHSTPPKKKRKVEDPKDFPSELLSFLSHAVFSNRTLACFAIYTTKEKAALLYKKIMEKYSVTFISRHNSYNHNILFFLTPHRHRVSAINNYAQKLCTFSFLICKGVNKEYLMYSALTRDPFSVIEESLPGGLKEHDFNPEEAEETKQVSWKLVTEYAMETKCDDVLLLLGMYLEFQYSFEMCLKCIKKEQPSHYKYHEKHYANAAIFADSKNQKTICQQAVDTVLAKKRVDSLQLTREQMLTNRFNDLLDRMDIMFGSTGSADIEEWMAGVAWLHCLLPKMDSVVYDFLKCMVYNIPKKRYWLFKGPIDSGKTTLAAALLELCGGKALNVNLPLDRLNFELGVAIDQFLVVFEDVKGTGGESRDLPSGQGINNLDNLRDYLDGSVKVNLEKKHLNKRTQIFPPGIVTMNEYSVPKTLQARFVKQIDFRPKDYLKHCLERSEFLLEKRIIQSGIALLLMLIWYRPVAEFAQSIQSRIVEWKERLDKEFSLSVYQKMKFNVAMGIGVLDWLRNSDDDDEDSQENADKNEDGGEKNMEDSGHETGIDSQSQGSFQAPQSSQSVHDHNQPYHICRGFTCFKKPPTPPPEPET", "format": "functional, Betapolyomavirus macacae"}, "[2]": {"target": "T1, Rac GTPase-activating protein 1 (Homo sapiens, UniProt Q9H0H5)", "T1 sequence (Q9H0H5 whole entry)": "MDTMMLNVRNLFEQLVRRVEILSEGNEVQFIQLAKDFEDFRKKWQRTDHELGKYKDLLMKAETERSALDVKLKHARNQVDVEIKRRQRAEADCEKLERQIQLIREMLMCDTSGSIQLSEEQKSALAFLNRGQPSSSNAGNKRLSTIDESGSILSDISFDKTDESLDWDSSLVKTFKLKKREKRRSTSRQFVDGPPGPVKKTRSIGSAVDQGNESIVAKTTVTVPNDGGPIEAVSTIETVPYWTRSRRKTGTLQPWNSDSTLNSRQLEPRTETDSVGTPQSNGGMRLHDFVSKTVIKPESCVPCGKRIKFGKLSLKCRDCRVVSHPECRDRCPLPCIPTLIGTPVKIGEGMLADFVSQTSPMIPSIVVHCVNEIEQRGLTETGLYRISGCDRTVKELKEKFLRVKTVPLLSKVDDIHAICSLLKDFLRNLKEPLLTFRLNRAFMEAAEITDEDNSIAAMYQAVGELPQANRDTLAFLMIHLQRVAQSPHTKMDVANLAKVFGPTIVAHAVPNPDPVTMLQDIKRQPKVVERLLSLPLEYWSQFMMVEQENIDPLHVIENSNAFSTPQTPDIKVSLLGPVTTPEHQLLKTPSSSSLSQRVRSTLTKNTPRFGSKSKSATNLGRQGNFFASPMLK", "assay": "MgcRacGAP GTPase-activating activity inhibitors, confirmation, biochemical, ADP Hunter fluorescence, primary and confirmatory (AID 624330)", "format": "functional"}, "[3]": {"target": "T2, Replicative DNA helicase DnaB (Mycobacterium tuberculosis, UniProt P9WMR3)", "T2 sequence (P9WMR3 whole entry)": "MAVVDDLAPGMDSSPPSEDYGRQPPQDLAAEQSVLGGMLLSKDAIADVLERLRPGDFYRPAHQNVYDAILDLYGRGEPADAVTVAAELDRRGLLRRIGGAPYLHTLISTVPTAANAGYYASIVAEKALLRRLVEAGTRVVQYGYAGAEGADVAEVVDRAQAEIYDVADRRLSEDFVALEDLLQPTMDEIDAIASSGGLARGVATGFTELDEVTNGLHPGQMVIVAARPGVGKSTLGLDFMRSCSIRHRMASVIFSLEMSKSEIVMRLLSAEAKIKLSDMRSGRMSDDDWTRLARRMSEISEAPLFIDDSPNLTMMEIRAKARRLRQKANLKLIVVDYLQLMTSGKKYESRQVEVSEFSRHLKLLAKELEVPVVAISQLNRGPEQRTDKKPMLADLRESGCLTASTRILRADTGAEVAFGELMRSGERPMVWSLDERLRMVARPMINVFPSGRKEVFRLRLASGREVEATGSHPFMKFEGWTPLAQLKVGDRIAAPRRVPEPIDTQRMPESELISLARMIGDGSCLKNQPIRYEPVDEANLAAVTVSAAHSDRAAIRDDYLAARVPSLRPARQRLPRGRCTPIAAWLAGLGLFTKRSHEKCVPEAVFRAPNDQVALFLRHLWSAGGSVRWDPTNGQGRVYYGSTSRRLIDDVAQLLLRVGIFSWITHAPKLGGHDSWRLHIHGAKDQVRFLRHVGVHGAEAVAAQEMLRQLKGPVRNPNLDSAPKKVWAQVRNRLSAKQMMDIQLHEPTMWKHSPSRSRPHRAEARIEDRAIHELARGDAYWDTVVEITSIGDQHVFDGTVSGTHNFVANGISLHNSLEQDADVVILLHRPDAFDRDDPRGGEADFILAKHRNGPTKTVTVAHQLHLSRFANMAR", "assay": "DnaB intein splicing inhibitors, dose response, biochemical, cell-free fluorescence (AID 449749)", "format": "functional"}, "[4]": {"target": "T3, Protein RecA (Mycobacterium tuberculosis, UniProt P9WHJ3)", "T3 sequence (P9WHJ3 whole entry)": "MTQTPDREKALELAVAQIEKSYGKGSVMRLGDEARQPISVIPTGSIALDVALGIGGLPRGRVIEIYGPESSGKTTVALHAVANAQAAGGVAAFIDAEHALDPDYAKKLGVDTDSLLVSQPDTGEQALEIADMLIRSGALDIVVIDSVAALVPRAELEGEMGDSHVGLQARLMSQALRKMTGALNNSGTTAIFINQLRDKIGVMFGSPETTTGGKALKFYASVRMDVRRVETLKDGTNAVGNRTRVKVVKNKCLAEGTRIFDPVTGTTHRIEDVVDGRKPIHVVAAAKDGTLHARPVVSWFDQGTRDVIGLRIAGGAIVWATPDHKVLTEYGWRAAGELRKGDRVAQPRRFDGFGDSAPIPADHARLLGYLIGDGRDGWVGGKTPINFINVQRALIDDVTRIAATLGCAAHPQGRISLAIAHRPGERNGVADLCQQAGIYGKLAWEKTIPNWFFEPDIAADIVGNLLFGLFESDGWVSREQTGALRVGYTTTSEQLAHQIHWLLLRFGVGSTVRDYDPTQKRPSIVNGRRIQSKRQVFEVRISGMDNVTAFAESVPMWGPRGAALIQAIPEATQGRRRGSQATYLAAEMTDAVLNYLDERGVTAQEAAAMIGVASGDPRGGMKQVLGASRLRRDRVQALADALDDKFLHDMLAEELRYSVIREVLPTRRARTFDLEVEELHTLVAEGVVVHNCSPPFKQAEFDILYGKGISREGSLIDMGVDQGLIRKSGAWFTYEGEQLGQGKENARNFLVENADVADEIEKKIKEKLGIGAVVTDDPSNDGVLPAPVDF", "assay": "Fluorescence Cell-Free Homogeneous Dose Retest to Identify Inhibitors of RecA-Intein Splicing Activity. [Related pubchem assays (depositor defined):AID2097, AID2223, AID489010, AID492950]", "format": "functional"}, "[5]": {"target": "Cytochrome P450 2C9 (Homo sapiens, UniProt P11712)", "sequence (P11712 whole entry)": "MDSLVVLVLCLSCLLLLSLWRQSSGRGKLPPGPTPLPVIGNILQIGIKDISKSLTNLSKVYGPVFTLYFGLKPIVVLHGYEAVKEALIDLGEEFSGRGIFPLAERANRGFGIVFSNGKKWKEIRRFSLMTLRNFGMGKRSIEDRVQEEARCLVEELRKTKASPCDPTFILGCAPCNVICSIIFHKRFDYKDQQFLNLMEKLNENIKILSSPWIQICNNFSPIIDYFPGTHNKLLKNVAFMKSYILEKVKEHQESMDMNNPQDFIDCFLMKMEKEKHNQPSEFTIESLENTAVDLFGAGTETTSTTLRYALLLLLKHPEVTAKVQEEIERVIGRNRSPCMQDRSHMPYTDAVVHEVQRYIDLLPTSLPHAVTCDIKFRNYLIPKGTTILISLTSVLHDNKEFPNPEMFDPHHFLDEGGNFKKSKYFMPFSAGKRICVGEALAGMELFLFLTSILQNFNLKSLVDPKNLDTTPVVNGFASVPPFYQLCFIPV"}, "[6]": {"target": "T4, Caspase-6 (Homo sapiens, UniProt P55212)", "T4 sequence (P55212 whole entry)": "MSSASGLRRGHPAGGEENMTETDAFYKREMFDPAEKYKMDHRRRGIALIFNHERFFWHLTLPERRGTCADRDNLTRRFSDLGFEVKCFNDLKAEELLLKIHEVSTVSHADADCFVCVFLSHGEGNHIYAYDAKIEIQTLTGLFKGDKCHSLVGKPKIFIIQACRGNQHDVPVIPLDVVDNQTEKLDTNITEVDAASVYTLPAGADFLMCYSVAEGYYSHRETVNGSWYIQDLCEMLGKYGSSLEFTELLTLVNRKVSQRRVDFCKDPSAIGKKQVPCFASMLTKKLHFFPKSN", "assay": "human caspase-6 inhibitors, dose response, biochemical, VEID-R110 fluorescence, cherry-pick (AID 720632)"}, "[7]": {"assay": "A cytotoxicity screen of small molecule inhibitors of the PhoP region in Salmonella typhi identified in the primary screen. [Related pubchem assays: 1850, 1864, 1985 ]", "format": "functional"}, "[8]": {"target": "FAD-linked sulfhydryl oxidase ALR (Homo sapiens, UniProt P55789)", "sequence (P55789 whole entry)": "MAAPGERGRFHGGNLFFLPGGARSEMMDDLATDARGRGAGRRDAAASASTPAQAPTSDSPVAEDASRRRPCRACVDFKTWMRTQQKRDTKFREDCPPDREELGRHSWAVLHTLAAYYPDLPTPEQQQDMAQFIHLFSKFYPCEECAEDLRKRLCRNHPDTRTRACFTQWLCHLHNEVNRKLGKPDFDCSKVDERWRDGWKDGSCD", "assay": "inhibitors of human ALR sulfhydryl oxidase, dose response, biochemical, H2O2 detection, luminescence, cherry-pick (AID 493248)"}, "[9]": {"assay": "microbe, parasite or virus in culture", "format": "functional", "settings": "Mycobacterium tuberculosis"}, "[10]": {"assay": "THP-1 cell cytotoxicity, dose response, cytotoxicity control for non-replicating M. tuberculosis project (AID 489025)", "format": "functional"}, "[11]": {"assay": "cells", "format": "functional"}}, "note": "Calls of active or inactive are those of the source.", "data": [{"compound": "CN(C)c1ccc(NC(S)=NCC2CCCO2)cc1", "note": "(configuration not stated)", "values": [{"measurement": "IC50", "setting": "[1]", "result": "14.3 µM (active)"}, {"measurement": "IC50", "setting": "[2]", "result": "85.6 µM (active)"}]}, {"compound": "Oc1cc(-c2ccc(Br)cc2)[nH]n1", "values": [{"measurement": "IC50", "setting": "[1]", "result": "53.9 µM (active)"}, {"measurement": "AC50", "setting": "[3]", "result": "3.06 µM (active)"}, {"measurement": "EC50", "setting": "[4]", "result": "718 nM (active)"}]}, {"compound": "CC[C@H](CO)NCCN[C@@H](CC)CO", "values": [{"measurement": "AC50", "setting": "[5]", "result": "inconclusive"}]}, {"compound": "C/C(=N\\NC(=O)c1cc(O)ccc1O)c1cccc(NC(=O)c2cccc(Cl)c2)c1", "values": [{"measurement": "AC50", "setting": "[6]", "result": "1.18 µM (active)"}]}, {"compound": "Clc1ccc(CN2CCN(/N=C/c3ccco3)CC2)cc1", "values": [{"measurement": "EC50", "setting": "[7]", "result": "> 50 µM (active)"}]}, {"compound": "CC1CC(C)CN(S(=O)(=O)c2cccc3cccnc23)C1", "note": "(configuration not stated)", "values": [{"measurement": "EC50", "setting": "[7]", "result": "> 50 µM (active)"}, {"measurement": "AC50", "setting": "[8]", "result": "17.4 µM (active)"}]}, {"compound": "O=Cc1ccc(N2CCCCCC2)cc1", "values": [{"measurement": "EC50", "setting": "[7]", "result": "> 50 µM (active)"}]}, {"compound": "O=C(/C=C\\c1ccc(O)c(O)c1)O[C@@H]1C[C@](O)(C(=O)O)C[C@@H](O)[C@@H]1O", "values": [{"measurement": "AC50", "setting": "[5]", "result": "inconclusive"}]}, {"compound": "COc1ccc2c(C(=O)CN(C)C3CCCCC3)c[nH]c2c1", "values": [{"measurement": "EC50", "setting": "[7]", "result": "> 50 µM (active)"}]}, {"compound": "CC(Oc1ccc(F)cc1)C(=O)Nc1cccc(-c2nn[nH]n2)c1", "note": "(configuration not stated)", "values": [{"measurement": "AC50", "setting": "[6]", "result": "32.6 µM (active)"}]}, {"compound": "Nc1nc2ccccc2n1CCOc1ccccc1Cl", "values": [{"measurement": "CC50", "setting": "[9]", "result": "> 40 µM (active)"}, {"measurement": "CC50", "setting": "[10]", "result": "20.6 µM (active)"}, {"measurement": "IC50", "setting": "[11]", "result": "23.8 µM (active)"}]}]}
